Data taken from patent US20100222332A1, “PYRAZOLO-PYRAZINES DERIVATIVES USED AS G PROTEIN INHIBITORS” (Ipsen Pharma S.A.S., priority 2007, published 2010).
Structures can show the parent of a compound that is named as a salt.

Structure (SMILES) | melting point
N[C@@H](C[Se][Se]C[C@H](N)C(=O)N1CCn2nc(-c3ccccc3)cc2C1CC1CCCCC1)C(=O)N1CCn2nc(-c3ccccc3)cc2C1CC1CCCCC1 (mixture of isomers) (as salt: hydrochloride) | 217 to 220 °C (dec.)
COc1cc(-c2cc3n(n2)CCN(C(=O)[C@H](CSSC[C@H](NC(=O)OC(C)(C)C)C(=O)N2CCn4nc(-c5cc(OC)c(OC)c(OC)c5)cc4C2CCc2ccccc2)NC(=O)OC(C)(C)C)C3CCc2ccccc2)cc(OC)c1OC (mixture of isomers) [Example 6, tert-butyl {(1R)-1-[({(2R)-2-[(tert-butoxycarbonyl)amino]-3-oxo-3-[(4RS)-4-(2-phenylethyl)-2-(3,4,5-trimethoxyphenyl)-6,7-dihydropyrazolo[1,5-a]pyrazin-5(4H)-yl]propyl}dithio)methyl]-2-oxo-2-[(4RS)-4-(2-phenylethyl)-2-(3,4,5-trimethoxyphenyl)-6,7-dihydropyrazolo[1,5-a]pyrazin-5(4H)-yl]ethyl}carbamate] | 130 to 136 °C
CC(C)(C)OC(=O)N[C@@H](CSSC[C@H](NC(=O)OC(C)(C)C)C(=O)N1CCCn2nc(-c3ccccc3)cc2C1CC1CCCCC1)C(=O)N1CCCn2nc(-c3ccccc3)cc2C1CC1CCCCC1 (mixture of isomers) [Example 27, tert-butyl {(1R)-1-[({(2R)-2-[(tert-butoxycarbonyl)amino]-3-[(4RS)-4-(cyclohexylmethyl)-2-phenyl-7,8-dihydro-4H-pyrazolo[1,5-a][1,4]diazepin-5(6H)-yl]-3-oxopropyl}dithio)methyl]-2-[(4RS)-4-(cyclohexylmethyl)-2-phenyl-7,8-dihydro-4H-pyrazolo[1,5-a][1,4]diazepin-5(6H)-yl]-2-oxoethyl}carbamate] | 105 to 116 °C
CCCCC1c2cc(-c3ccccc3)nn2CCN1C(=O)[C@H](CSSC[C@H](NC(=O)OC(C)(C)C)C(=O)N1CCn2nc(-c3ccccc3)cc2C1CCCC)NC(=O)OC(C)(C)C (mixture of isomers) [Example 10, tert-butyl {(1R)-1-[({(2R)-2-[(tert-butoxycarbonyl)amino]-3-[(4RS)-4-butyl-2-phenyl-6,7-dihydropyrazolo[1,5-a]pyrazin-5(4H)-yl]-3-oxopropyl}dithio)methyl]-2-[(4RS)-4-butyl-2-phenyl-6,7-dihydropyrazolo[1,5-a]pyrazin-5(4H)-yl]-2-oxoethyl}carbamate] | 95 to 102 °C
CC(C)(C)OC(=O)N[C@@H](CSSC[C@H](NC(=O)OC(C)(C)C)C(=O)N1CCn2nc(-c3ccccc3)cc2C1CC1CCCCC1)C(=O)N1CCn2nc(-c3ccccc3)cc2C1CC1CCCCC1 (mixture of isomers) [Example 1, tert-butyl {(1R)-1-[({(2R)-2-[(tert-butoxycarbonyl)amino]-3-[(4RS)-4-(cyclohexylmethyl)-2-phenyl-6,7-dihydropyrazolo[1,5-a]pyrazin-5(4H)-yl]-3-oxopropyl}dithio)methyl]-2-[(4RS)-4-(cyclohexylmethyl)-2-phenyl-6,7-dihydropyrazolo[1,5-a]pyrazin-5(4H)-yl]-2-oxoethyl}carbamate] | 129 to 132 °C
N[C@@H](CSSC[C@H](N)C(=O)N1CCn2nc(-c3ccccc3)cc2C1CC1CCCCC1)C(=O)N1CCn2nc(-c3ccccc3)cc2C1CC1CCCCC1 (mixture of isomers) (as salt: hydrochloride) [Example 12, (2R)-3-({(2R)-2-amino-3-[(4RS)-4-(cyclohexylmethyl)-2-phenyl-6,7-dihydropyrazolo[1,5-a]pyrazin-5(4H)-yl]-3-oxopropyl}dithio)-1-[(4RS)-4-(cyclohexylmethyl)-2-phenyl-6,7-dihydropyrazolo[1,5-a]pyrazin-5(4H)-yl]-1-oxopropan-2-amine hydrochloride] | 218 °C (dec.)
CC(C)(C)OC(=O)N[C@@H](C[Se][Se]C[C@H](NC(=O)OC(C)(C)C)C(=O)N1CCn2nc(-c3ccccc3)cc2C1CC1CCCCC1)C(=O)N1CCn2nc(-c3ccccc3)cc2C1CC1CCCCC1 (mixture of isomers) | 117 to 120 °C
N[C@@H](CSSC[C@H](N)C(=O)N1CCn2nc(-c3ccccc3)cc2[C@@H]1CC1CCCCC1)C(=O)N1CCn2nc(-c3ccccc3)cc2[C@@H]1CC1CCCCC1 (as salt: hydrochloride) [Example 24, (2R)-3-({(2R)-2-amino-3-[(4S)-4-(cyclohexylmethyl)-2-phenyl-6,7-dihydropyrazolo[1,5-a]pyrazin-5(4H)-yl]-3-oxopropyl}dithio)-1-[(4S)-4-(cyclohexylmethyl)-2-phenyl-6,7-dihydropyrazolo[1,5-a]pyrazin-5(4H)-yl]-1-oxopropan-2-amine hydrochloride] | 214 to 219 °C
COc1cc(-c2cc3n(n2)CCN(C(=O)[C@@H](N)CSSC[C@H](N)C(=O)N2CCn4nc(-c5cc(OC)c(OC)c(OC)c5)cc4C2CCc2ccccc2)C3CCc2ccccc2)cc(OC)c1OC (mixture of isomers) (as salt: hydrochloride) [Example 17, (2R)-3-({(2R)-2-amino-3-oxo-3-[(4RS)-4-(2-phenylethyl)-2-(3,4,5-trimethoxyphenyl)-6,7-dihydropyrazolo[1,5-a]pyrazin-5(4H)-yl]propyl}dithio)-1-oxo-1-[(4RS)-4-(2-phenylethyl)-2-(3,4,5-trimethoxyphenyl)-6,7-dihydropyrazolo[1,5-a]pyrazin-5(4H)-yl]propan-2-amine hydrochloride] | 211 °C (dec.)
N[C@@H](CSSC[C@H](N)C(=O)N1CCn2nc(-c3ccccn3)cc2C1CCc1ccccc1)C(=O)N1CCn2nc(-c3ccccn3)cc2C1CCc1ccccc1 (mixture of isomers) (as salt: hydrochloride) [Example 32, (2R)-3-({(2R)-2-amino-3-oxo-3-[(4RS)-4-(2-phenylethyl)-2-pyridin-2-yl-6,7-dihydropyrazolo[1,5-a]pyrazin-5(4H)-yl]propyl}dithio)-1-oxo-1-[(4RS)-4-(2-phenylethyl)-2-pyridin-2-yl-6,7-dihydropyrazolo[1,5-a]pyrazin-5(4H)-yl]propan-2-amine hydrochloride] | 232 to 234 °C (dec.)
CC(C)(C)OC(=O)N[C@@H](CSSC[C@H](NC(=O)OC(C)(C)C)C(=O)N1CCn2nc(-c3cccs3)cc2C1CCc1ccccc1)C(=O)N1CCn2nc(-c3cccs3)cc2C1CCc1ccccc1 (mixture of isomers) [Example 7, tert-butyl {(1R)-1-[({(2R)-2-[(tert-butoxycarbonyl)amino]-3-oxo-3-[(4RS)-4-(2-phenylethyl)-2-(2-thienyl)-6,7-dihydropyrazolo[1,5-a]pyrazin-5(4H)-yl]propyl}dithio)methyl]-2-oxo-2-[(4RS)-4-(2-phenylethyl)-2-(2-thienyl)-6,7-dihydropyrazolo[1,5-a]pyrazin-5(4H)-yl]ethyl}carbamate] | 105 to 112 °C
N[C@@H](CSSC[C@H](N)C(=O)N1CCn2nc(-c3ccco3)cc2C1CCc1ccccc1)C(=O)N1CCn2nc(-c3ccco3)cc2C1CCc1ccccc1 (mixture of isomers) (as salt: hydrochloride) [Example 19, (2R)-3-({(2R)-2-amino-3-[(4RS)-2-(2-furyl)-4-(2-phenylethyl)-6,7-dihydropyrazolo[1,5-a]pyrazin-5(4H)-yl]-3-oxopropyl}dithio)-1-[(4RS)-2-(2-furyl)-4-(2-phenylethyl)-6,7-dihydropyrazolo[1,5-a]pyrazin-5(4H)-yl]-1-oxopropan-2-amine hydrochloride] | 207 °C (dec.)
